From patent US9125913B2, “Bcl-2-selective apoptosis-inducing agents for the treatment of cancer and immune diseases” (AbbVie Inc., priority 2008, dated 2015)

System: GST-Bcl-2
Experiment: TR-FRET binding assay, Bcl-2
Conditions: TR-FRET Ki values
Summary of the method: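 Compounds serially diluted in DMSO from 50 μM (2× starting concentration, 10% DMSO), mixed with GST-tagged protein, F-Bak peptide probe and Tb-labeled antibody, incubated 3 h at room temperature.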

SMILES | Binding selectivity ratio (Bcl-XL Ki/Bcl-2 Ki)
CC1(C)CCC(CN2CCN(c3ccc(C(=O)NS(=O)(=O)c4cnc(NCC5CCOCC5)c(Br)c4)c(Oc4cccc5[nH]ccc45)c3)CC2)=C(c2ccc(Cl)cc2)C1 [EXAMPLE 325, N-({5-bromo-6-[(tetrahydro-2H-pyran-4-ylmethyl)amino]pyridin-3-yl}sulfonyl)-4-(4-{[2-(4-chlorophenyl)-4,4-dimethylcyclohex-1-en-1-yl]methyl}piperazin-1-yl)-2-(1H-indol-4-yloxy)benzamide] | >283.1
CC1(C)CCC(CN2CCN(c3ccc(C(=O)NS(=O)(=O)c4cnc(OCCN5CCOCC5)c(C#N)c4)c(Oc4cccc5[nH]ccc45)c3)CC2)=C(c2ccc(Cl)cc2)C1 [EXAMPLE 392, 4-(4-{[2-(4-chlorophenyl)-4,4-dimethylcyclohex-1-en-1-yl]methyl}piperazin-1-yl)-N-{[5-cyano-6-(2-morpholin-4-ylethoxy)pyridin-3-yl]sulfonyl}-2-(1H-indol-4-yloxy)benzamide] | 320.2
O=C(NS(=O)(=O)c1ccc(OCC2CCOCC2)c([N+](=O)[O-])c1)c1ccc(N2CCN(Cc3ccc(C(F)(F)F)cc3-c3ccc(Cl)cc3)CC2)cc1Oc1ccc2[nH]ccc2c1 [EXAMPLE 340, 4-(4-{[4′-chloro-5-(trifluoromethyl)-1,1′-biphenyl-2-yl]methyl}piperazin-1-yl)-2-(1H-indol-5-yloxy)-N-{[3-nitro-4-(tetrahydro-2H-pyran-4-ylmethoxy)phenyl]sulfonyl}benzamide] | >86.9
CC1(C)CCC(CN2CCN(c3ccc(C(=O)NS(=O)(=O)c4ccc(NCC5(N)CCOCC5)c([N+](=O)[O-])c4)c(Oc4ccc5[nH]ccc5c4)c3)CC2)=C(c2ccc(Cl)cc2)C1 [EXAMPLE 188, N-[(4-{[(4-aminotetrahydro-2H-pyran-4-yl)methyl]amino}-3-nitrophenyl)sulfonyl]-4-(4-{[2-(4-chlorophenyl)-4,4-dimethylcyclohex-1-en-1-yl]methyl}piperazin-1-yl)-2-(1H-indol-5-yloxy)benzamide] | 1135.4
CN(C)CCCOc1ccc(-c2ccc(Cl)cc2)c(CN2CCN(c3ccc(C(=O)NS(=O)(=O)c4ccc(NCC5CCOCC5)c(S(=O)(=O)C(F)(F)F)c4)c(Oc4ccccc4)c3)CC2)c1 [Example 119, 4-[4-({4′-chloro-4-[3-(dimethylamino)propoxy]-1,1′-biphenyl-2-yl}methyl)piperazin-1-yl]-2-phenoxy-N-({4-[(tetrahydro-2H-pyran-4-ylmethyl)amino]-3-[(trifluoromethyl)sulfonyl]phenyl}sulfonyl)benzamide] | 370.2
CC1(C)CCC(CN2CCN(c3ccc(C(=O)NS(=O)(=O)c4ccc(NCC5CCCCC5)c([N+](=O)[O-])c4)c(Oc4ccc5[nH]ccc5c4)c3)CC2)=C(c2ccc(Cl)cc2)C1 [EXAMPLE 259, 4-(4-{[2-(4-chlorophenyl)-4,4-dimethylcyclohex-1-en-1-yl]methyl}piperazin-1-yl)-N-({4-[(cyclohexylmethyl)amino]-3-nitrophenyl}sulfonyl)-2-(1H-indol-5-yloxy)benzamide] | >330.9
CC1(C)CCC(CN2CCN(c3ccc(C(=O)NS(=O)(=O)c4ccc(NCCCN5CCOCC5)c(S(=O)(=O)C(F)(F)F)c4)c(Oc4cccc5[nH]ccc45)c3)CC2)=C(c2ccc(Cl)cc2)C1 [EXAMPLE 349, 4-(4-{[2-(4-chlorophenyl)-4,4-dimethylcyclohex-1-en-1-yl]methyl}piperazin-1-yl)-2-(1H-indol-4-yloxy)-N-({4-[(3-morpholin-4-ylpropyl)amino]-3-[(trifluoromethyl)sulfonyl]phenyl}sulfonyl)benzamide] | 51.9
CC1(C)CCC(CN2CCN(c3ccc(C(=O)NS(=O)(=O)c4ccc(NCC5CCOCC5)c(C#N)c4)c(Oc4cccc5[nH]ccc45)c3)CC2)=C(c2ccc(Cl)cc2)C1 [EXAMPLE 366, 4-(4-{[2-(4-chlorophenyl)-4,4-dimethylcyclohex-1-en-1-yl]methyl}piperazin-1-yl)-N-({3-cyano-4-[(tetrahydro-2H-pyran-4-ylmethyl)amino]phenyl}sulfonyl)-2-(1H-indol-4-yloxy)benzamide] | >121.0
CC1(C)CCC(CN2CCN(c3ccc(C(=O)NS(=O)(=O)c4ccc(OCC5CCOC(C)(C)C5)c([N+](=O)[O-])c4)c(Oc4ccc5[nH]ccc5c4)c3)CC2)=C(c2ccc(Cl)cc2)C1 (stereo not shown) [EXAMPLE 384, 4-(4-{[2-(4-chlorophenyl)-4,4-dimethylcyclohex-1-en-1-yl]methyl}piperazin-1-yl)-N-({4-[(2,2-dimethyltetrahydro-2H-pyran-4-yl)methoxy]-3-nitrophenyl}sulfonyl)-2-(1H-indol-5-yloxy)benzamide] | >8684.2
O=C(NS(=O)(=O)c1ccc(NCCn2ccnn2)c([N+](=O)[O-])c1)c1ccc(N2CCN(Cc3ccccc3-c3ccc(Cl)cc3)CC2)cc1Oc1ccccc1 [Example 164, 4-{4-[(4′-chloro-1,1′-biphenyl-2-yl)methyl]piperazin-1-yl}-N-[(3-nitro-4-{[2-(1H-1,2,3-triazol-1-yl)ethyl]amino}phenyl)sulfonyl]-2-phenoxybenzamide] | 143.3
CC1(C)CC(c2ccc(Cl)cc2)=C(CN2CCN(c3ccc(C(=O)NS(=O)(=O)c4ccc(NCC5CCOCC5)c([N+](=O)[O-])c4)c(Oc4ccc5[nH]ccc5c4)c3)CC2)CO1 [EXAMPLE 182, 4-(4-{[4-(4-chlorophenyl)-6,6-dimethyl-5,6-dihydro-2H-pyran-3-yl]methyl}piperazin-1-yl)-2-(1H-indol-5-yloxy)-N-({3-nitro-4-[(tetrahydro-2H-pyran-4-ylmethyl)amino]phenyl}sulfonyl)benzamide] | >7595.8
CC1(C)CCC(CN2CCN(c3ccc(C(=O)NS(=O)(=O)c4ccc(OC[C@H]5COCCO5)c([N+](=O)[O-])c4)c(Oc4ccc5[nH]ccc5c4)c3)CC2)=C(c2ccc(Cl)cc2)C1 [EXAMPLE 346, 4-(4-{[2-(4-chlorophenyl)-4,4-dimethylcyclohex-1-en-1-yl]methyl}piperazin-1-yl)-N-({4-[(2R)-1,4-dioxan-2-ylmethoxy]-3-nitrophenyl}sulfonyl)-2-(1H-indol-5-yloxy)benzamide] | 11405.2
CN(C)CC(=O)N1CC[C@@H](Nc2ccc(S(=O)(=O)NC(=O)c3ccc(N4CCN(CC5=C(c6ccc(Cl)cc6)CC(C)(C)CC5)CC4)cc3Oc3cccc4[nH]cnc34)cc2[N+](=O)[O-])C1 [EXAMPLE 430, 2-(1H-benzimidazol-4-yloxy)-4-(4-{[2-(4-chlorophenyl)-4,4-dimethylcyclohex-1-en-1-yl]methyl}piperazin-1-yl)-N-[(4-{[(3R)-1-(N,N-dimethylglycyl)pyrrolidin-3-yl]amino}-3-nitrophenyl)sulfonyl]benzamide] | 99.767
CC1(C)CCC(CN2CCN(c3ccc(C(=O)NS(=O)(=O)c4ccc(NN5CCS(=O)(=O)CC5)c([N+](=O)[O-])c4)c(Oc4ccc5[nH]ccc5c4)c3)CC2)=C(c2ccc(Cl)cc2)C1 [EXAMPLE 362, 4-(4-{[2-(4-chlorophenyl)-4,4-dimethylcyclohex-1-en-1-yl]methyl}piperazin-1-yl)-N-({4-[(1,1-dioxidothiomorpholin-4-yl)amino]-3-nitrophenyl}sulfonyl)-2-(1H-indol-5-yloxy)benzamide] | 3548.2
CC(C)C[C@@H](CO)Nc1ccc(S(=O)(=O)NC(=O)c2ccc(N3CCN(CC4=C(c5ccc(Cl)cc5)CC(C)(C)CC4)CC3)cc2Oc2ccc3[nH]ccc3c2)cc1[N+](=O)[O-] [EXAMPLE 369, 4-(4-{[2-(4-chlorophenyl)-4,4-dimethylcyclohex-1-en-1-yl]methyl}piperazin-1-yl)-N-[(4-{[(1S)-1-(hydroxymethyl)-3-methylbutyl]amino}-3-nitrophenyl)sulfonyl]-2-(1H-indol-5-yloxy)benzamide] | >0.8
CN(C)CCNc1ccc(S(=O)(=O)NC(=O)c2ccc(N3CCN(Cc4ccccc4-c4ccc(Cl)cc4)CC3)cc2Oc2ccccc2)cc1[N+](=O)[O-] [Example 153, 4-{4-[(4′-chloro-1,1′-biphenyl-2-yl)methyl]piperazin-1-yl}-N-[(4-{[2-(dimethylamino)ethyl]amino}-3-nitrophenyl)sulfonyl]-2-phenoxybenzamide] | 351
CN(C)CC(=O)N1CCO[C@H](COc2ncc(S(=O)(=O)NC(=O)c3ccc(N4CCN(CC5=C(c6ccc(Cl)cc6)CC(C)(C)CC5)CC4)cc3Oc3cccc4[nH]ncc34)cc2Cl)C1 [EXAMPLE 425, N-[(5-chloro-6-{[(2S)-4-(N,N-dimethylglycyl)morpholin-2-yl]methoxy}pyridin-3-yl)sulfonyl]-4-(4-{[2-(4-chlorophenyl)-4,4-dimethylcyclohex-1-en-1-yl]methyl}piperazin-1-yl)-2-(1H-indazol-4-yloxy)benzamide] | 1282
CN(C)CCOc1cccc(-c2ccc(Cl)cc2)c1CN1CCN(c2ccc(C(=O)NS(=O)(=O)c3ccc(NC4CCN(C)CC4)c([N+](=O)[O-])c3)c(Oc3cccc4[nH]ccc34)c2)CC1 [EXAMPLE 205, 4-[4-({4′-chloro-3-[2-(dimethylamino)ethoxy]-1,1′-biphenyl-2-yl}methyl)piperazin-1-yl]-2-(1H-indol-4-yloxy)-N-({4-[(1-methylpiperidin-4-yl)amino]-3-nitrophenyl}sulfonyl)benzamide] | 658.6
CN1CCN(CCNc2ccc(S(=O)(=O)NC(=O)c3ccc(N4CCN(CC5=C(c6ccc(Cl)cc6)CC(C)(C)CC5)CC4)cc3Oc3ccc4[nH]ccc4c3)cc2[N+](=O)[O-])CC1 [Example 95, 4-(4-{[2-(4-chlorophenyl)-4,4-dimethylcyclohex-1-en-1-yl]methyl}piperazin-1-yl)-2-(1H-indol-5-yloxy)-N-[(4-{[2-(4-methylpiperazin-1-yl)ethyl]amino}-3-nitrophenyl)sulfonyl]benzamide] | 261.7
